Assay: Primary eye irritation, protocol FHSLA 16 CFR 1500.42
Assay type: in vivo
Conditions: products tested at 25% actives
Method: Eye irritation is a major concern in the formulation of personal care products, particularly when working with quats. Primary eye irritation using the protocol outlined in FHSLA 16 CFR 1500.42 The products were tested at 25% actives.

Row | SMILES | Primary eye irritation rating | Primary eye irritation score
1 | CCCCCCCCCCCCCCCC[N+](CC)(CC)CC.[Cl-] [Cetyltriethyl ammonium Chloride] | Severely Irritating | 115.0
2 | CCCCCCCCCCCCCCCC[N+](C)(C)C.[Cl-] [Cetyltrimethyl ammonium Chloride] | Severely Irritating | 106.0
3 | CCCCCCCCCCCCCCCCCC[N+](C)(C)Cc1ccccc1.[Cl-] [Stearalkonium Chloride] | Severely Irritating | 116.5

From US6461598B1, “Process for conditioning hair” (Biosil Research Institute Inc., priority 2000, dated 2002)
